In ChEMBL document CHEMBL1201862, “PubChem BioAssay data set” (2004):
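Growth conditions: 96-well plates. Treatment: test compound, 48 hours, 5 concentrations. Analysis: linear interpolation between bracketing concentrations; unreached endpoints set to highest concentration. At the GI50, growth is halved.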 Active and inactive are the calls of the source. Cut-off read from the data, not from the text of the source: active = GI50 up to about 1.1 µM and inactive = higher.

Experiments:
Experiment in all cases: NCI tumour cell line growth inhibition, 48 h
M14 = system: M14
UO-31 = system: UO-31
SN12C = system: SN12C
A549 = system: A549
OVCAR-4 = system: OVCAR-4
HOP-62 = system: HOP-62
MDA-N = system: MDA-N
SW-620 = system: SW-620
MDA-MB-435 = system: MDA-MB-435
HCC 2998 = system: HCC 2998
KM12 = system: KM12
UACC-257 = system: UACC-257
EKVX = system: EKVX
OVCAR-8 = system: OVCAR-8
NCI/ADR-RES = system: NCI/ADR-RES
HT-29 = system: HT-29
NCI-H522 = system: NCI-H522
Malme-3M = system: Malme-3M

SMILES: COC1/C=C/C(C)C(C(C)C(OC)C(C)CCC(=O)C(C)C(CC(=O)O)OC)OC(=O)/C=C/C=C(\C)CC(OC)C(OC)C2=CC(=O)O[C@@H](C(C)C(OC)CC(OC)/C=C/C(C)C(O)C1)[C@H]2O (stereo not given in full)
- GI50 (M14): 0.0286 µM (active)
- GI50 (UO-31): 0.0382 µM (active)
- GI50 (SN12C): 0.406 µM (active)
- GI50 (A549): 0.0419 µM (active)
- GI50 (OVCAR-4): 0.153 µM (active)
- GI50 (HOP-62): 0.121 µM (active)
- GI50 (MDA-N): 0.0785 µM (active)
- GI50 (SW-620): 0.0242 µM (active)
- GI50 (MDA-MB-435): 0.0681 µM (active)
- GI50 (HCC 2998): 0.0631 µM (active)
- GI50 (KM12): 0.0512 µM (active)
- GI50 (UACC-257): 0.0993 µM (active)
- GI50 (EKVX): 0.0474 µM (active)
- GI50 (OVCAR-8): 0.0337 µM (active)
- GI50 (NCI/ADR-RES): 0.149 µM (active)
- GI50 (HT-29): 0.026 µM (active)

SMILES: CCCCCCCc1c(Cl)nc(Cl)nc1Cl
- GI50 (M14): 2.13 µM (inactive)
- GI50 (UO-31): 5.82 µM (inactive)
- GI50 (SN12C): 2.05 µM (inactive)
- GI50 (A549): 16.9 µM (inactive)
- GI50 (OVCAR-4): 2.87 µM (inactive)
- GI50 (NCI-H522): 1.74 µM (inactive)
- GI50 (HOP-62): 18.6 µM (inactive)
- GI50 (MDA-N): 3.75 µM (inactive)
- GI50 (SW-620): 2.68 µM (inactive)
- GI50 (MDA-MB-435): 2.65 µM (inactive)
- GI50 (HCC 2998): 5.81 µM (inactive)
- GI50 (KM12): 11.2 µM (inactive)
- GI50 (UACC-257): 10.4 µM (inactive)
- GI50 (EKVX): 8.77 µM (inactive)
- GI50 (OVCAR-8): 2.36 µM (inactive)
- GI50 (NCI/ADR-RES): 4.26 µM (inactive)
- GI50 (Malme-3M): 3.01 µM (inactive)
- GI50 (HT-29): 4.04 µM (inactive)

SMILES: CCN(CC)CCCn1cnc2ncccc2c1=O
- GI50 (M14): > 100 µM (inactive)
- GI50 (UO-31): > 100 µM (inactive)
- GI50 (SN12C): > 100 µM (inactive)
- GI50 (A549): > 100 µM (inactive)
- GI50 (OVCAR-4): > 100 µM (inactive)
- GI50 (NCI-H522): > 100 µM (inactive)
- GI50 (HOP-62): > 100 µM (inactive)
- GI50 (SW-620): > 100 µM (inactive)
- GI50 (HCC 2998): > 10 µM (inactive)
- GI50 (KM12): > 100 µM (inactive)
- GI50 (EKVX): > 100 µM (inactive)
- GI50 (OVCAR-8): > 100 µM (inactive)
- GI50 (Malme-3M): > 100 µM (inactive)
- GI50 (HT-29): > 100 µM (inactive)

SMILES: CN(C)c1nc2oc(-c3ccccc3)c(-c3ccccc3)c2c2nncn12
- GI50 (M14): > 100 µM (inactive)
- GI50 (UO-31): > 100 µM (inactive)
- GI50 (SN12C): > 100 µM (inactive)
- GI50 (A549): > 100 µM (inactive)
- GI50 (OVCAR-4): > 100 µM (inactive)
- GI50 (NCI-H522): > 100 µM (inactive)
- GI50 (SW-620): > 100 µM (inactive)
- GI50 (MDA-MB-435): > 100 µM (inactive)
- GI50 (HCC 2998): > 100 µM (inactive)
- GI50 (KM12): > 100 µM (inactive)
- GI50 (UACC-257): > 100 µM (inactive)
- GI50 (EKVX): > 100 µM (inactive)
- GI50 (OVCAR-8): > 100 µM (inactive)
- GI50 (NCI/ADR-RES): > 100 µM (inactive)
- GI50 (HT-29): > 100 µM (inactive)

SMILES: Cc1ccc2c(c1)CC1(Cc3cccc(C)c3C1=O)C2=O (stereo not given)
- GI50 (M14): 64.4 µM (inactive)
- GI50 (UO-31): 20.9 µM (inactive)
- GI50 (SN12C): > 100 µM (inactive)
- GI50 (A549): > 100 µM (inactive)
- GI50 (OVCAR-4): 55.8 µM (inactive)
- GI50 (NCI-H522): 82.6 µM (inactive)
- GI50 (HOP-62): > 100 µM (inactive)
- GI50 (MDA-N): > 10 µM (inactive)
- GI50 (SW-620): > 100 µM (inactive)
- GI50 (MDA-MB-435): > 10 µM (inactive)
- GI50 (HCC 2998): > 100 µM (inactive)
- GI50 (UACC-257): > 100 µM (inactive)
- GI50 (EKVX): > 100 µM (inactive)
- GI50 (OVCAR-8): > 100 µM (inactive)
- GI50 (NCI/ADR-RES): > 100 µM (inactive)
- GI50 (Malme-3M): 85.5 µM (inactive)
- GI50 (HT-29): 51.3 µM (inactive)

SMILES: C/C(=C/CNc1ncnc2c1ncn2CCC#N)CO
- GI50 (M14): > 100 µM (inactive)
- GI50 (UO-31): > 100 µM (inactive)
- GI50 (SN12C): > 100 µM (inactive)
- GI50 (A549): > 100 µM (inactive)
- GI50 (OVCAR-4): > 100 µM (inactive)
- GI50 (NCI-H522): > 100 µM (inactive)
- GI50 (HOP-62): > 100 µM (inactive)
- GI50 (MDA-N): > 100 µM (inactive)
- GI50 (SW-620): > 100 µM (inactive)
- GI50 (MDA-MB-435): > 100 µM (inactive)
- GI50 (HCC 2998): > 100 µM (inactive)
- GI50 (KM12): > 100 µM (inactive)
- GI50 (UACC-257): > 100 µM (inactive)
- GI50 (EKVX): > 100 µM (inactive)
- GI50 (OVCAR-8): > 100 µM (inactive)
- GI50 (NCI/ADR-RES): > 100 µM (inactive)
- GI50 (Malme-3M): > 100 µM (inactive)
- GI50 (HT-29): > 100 µM (inactive)

SMILES: CSC1=C(C(=O)Nc2ccc(C)cc2)C(N)=NC1=O
- GI50 (M14): > 100 µM (inactive)
- GI50 (UO-31): > 100 µM (inactive)
- GI50 (OVCAR-4): > 100 µM (inactive)
- GI50 (SW-620): > 100 µM (inactive)
- GI50 (MDA-MB-435): > 100 µM (inactive)
- GI50 (HCC 2998): > 100 µM (inactive)
- GI50 (KM12): > 100 µM (inactive)
- GI50 (UACC-257): > 100 µM (inactive)
- GI50 (EKVX): > 100 µM (inactive)
- GI50 (OVCAR-8): > 100 µM (inactive)
- GI50 (NCI/ADR-RES): > 100 µM (inactive)
- GI50 (HT-29): > 100 µM (inactive)

SMILES: C=C[C@@]1(C)CC2CC[C@]3(C)C(C)=CC(=O)CC3[C@]2(C)CC1O (stereo not given in full)
- GI50 (M14): > 100 µM (inactive)
- GI50 (UO-31): > 100 µM (inactive)
- GI50 (SN12C): > 100 µM (inactive)
- GI50 (A549): > 100 µM (inactive)
- GI50 (OVCAR-4): > 100 µM (inactive)
- GI50 (NCI-H522): 32.7 µM (inactive)
- GI50 (HOP-62): > 100 µM (inactive)
- GI50 (SW-620): > 100 µM (inactive)
- GI50 (MDA-MB-435): > 100 µM (inactive)
- GI50 (HCC 2998): > 100 µM (inactive)
- GI50 (KM12): 85.3 µM (inactive)
- GI50 (UACC-257): > 100 µM (inactive)
- GI50 (EKVX): > 100 µM (inactive)
- GI50 (NCI/ADR-RES): > 100 µM (inactive)
- GI50 (Malme-3M): > 100 µM (inactive)
- GI50 (HT-29): > 100 µM (inactive)

SMILES: COc1cc(/C=C2\C(=O)N(C(=O)c3ccc(NC(C)=O)cc3)N=C2C)ccc1O
- GI50 (M14): > 100 µM (inactive)
- GI50 (UO-31): > 100 µM (inactive)
- GI50 (SN12C): > 100 µM (inactive)
- GI50 (A549): > 100 µM (inactive)
- GI50 (OVCAR-4): > 100 µM (inactive)
- GI50 (NCI-H522): > 100 µM (inactive)
- GI50 (HOP-62): > 100 µM (inactive)
- GI50 (SW-620): > 100 µM (inactive)
- GI50 (HCC 2998): > 100 µM (inactive)
- GI50 (KM12): > 100 µM (inactive)
- GI50 (UACC-257): > 100 µM (inactive)
- GI50 (EKVX): > 100 µM (inactive)
- GI50 (OVCAR-8): > 100 µM (inactive)
- GI50 (Malme-3M): > 100 µM (inactive)
- GI50 (HT-29): > 100 µM (inactive)

SMILES: Cc1cc(C)n(C(=O)CSc2nc3ccc(I)cc3c(=O)n2Cc2ccccc2)n1
- GI50 (M14): 97.1 µM (inactive)
- GI50 (SN12C): 51.8 µM (inactive)
- GI50 (A549): 41 µM (inactive)
- GI50 (OVCAR-4): 35.1 µM (inactive)
- GI50 (NCI-H522): 20.1 µM (inactive)
- GI50 (HOP-62): 31.9 µM (inactive)
- GI50 (MDA-N): > 100 µM (inactive)
- GI50 (SW-620): 87.1 µM (inactive)
- GI50 (MDA-MB-435): 73.6 µM (inactive)
- GI50 (HCC 2998): 68.4 µM (inactive)
- GI50 (KM12): 50.2 µM (inactive)
- GI50 (UACC-257): 33.9 µM (inactive)
- GI50 (EKVX): 24 µM (inactive)
- GI50 (OVCAR-8): 24.9 µM (inactive)
- GI50 (NCI/ADR-RES): 36.6 µM (inactive)
- GI50 (HT-29): > 100 µM (inactive)

SMILES: CN(C)/C(=N/C(=S)Nc1ccccc1)SCc1ccccc1
- GI50 (M14): 67.8 µM (inactive)
- GI50 (UO-31): 22.5 µM (inactive)
- GI50 (SN12C): 66.2 µM (inactive)
- GI50 (A549): 32 µM (inactive)
- GI50 (OVCAR-4): 5.47 µM (inactive)
- GI50 (NCI-H522): 2.73 µM (inactive)
- GI50 (HOP-62): 71.6 µM (inactive)
- GI50 (SW-620): > 100 µM (inactive)
- GI50 (HCC 2998): 36.4 µM (inactive)
- GI50 (KM12): 7.23 µM (inactive)
- GI50 (UACC-257): 36.6 µM (inactive)
- GI50 (EKVX): > 100 µM (inactive)
- GI50 (OVCAR-8): 56.4 µM (inactive)
- GI50 (Malme-3M): 40.2 µM (inactive)
- GI50 (HT-29): 3.88 µM (inactive)

SMILES: C/C(=N/NC(=S)N1CCCCCC1)c1cccc(/C(C)=N\NC(=S)N2CCCCCC2)n1
- GI50 (M14): 1.71 µM (inactive)
- GI50 (UO-31): 1.37 µM (inactive)
- GI50 (SN12C): 2.09 µM (inactive)
- GI50 (A549): 2.07 µM (inactive)
- GI50 (OVCAR-4): 1.01 µM (active)
- GI50 (NCI-H522): 2.62 µM (inactive)
- GI50 (HOP-62): 1.89 µM (inactive)
- GI50 (MDA-N): 2.23 µM (inactive)
- GI50 (SW-620): 1.11 µM (active)
- GI50 (MDA-MB-435): 1.84 µM (inactive)
- GI50 (HCC 2998): 2.27 µM (inactive)
- GI50 (KM12): 1.63 µM (inactive)
- GI50 (UACC-257): 1.58 µM (inactive)
- GI50 (EKVX): 3.13 µM (inactive)
- GI50 (OVCAR-8): 1.55 µM (inactive)
- GI50 (NCI/ADR-RES): 1.69 µM (inactive)
- GI50 (Malme-3M): 0.938 µM (active)
- GI50 (HT-29): 2.16 µM (inactive)
